Laboratory results published in patent US20250345314A1 (PUSAN NATIONAL UNIVERSITY INDUSTRY-UNIVERSITY COOPERATION …, priority 2024, published 2025).

How the values were obtained:
Assay type in all cases: cell-based
[1] = tested on: mesenchymal stem cells UCB #001, UCB #006, and UCB #192; assay: Cell viability of mesenchymal stem cells by CCK-8 assay
Procedure: The effects of rapamycin on the survival rate of mesenchymal stem cells and the secretion of HGF and PGE2 were confirmed. Specifically, the mesenchymal stem cells UCB #001, UCB #006, and UCB #192 were treated with rapamycin at various concentrations of 1.25, 2.5, 5, 10, 20, 40, and 80 ng/ml for 24 hours.
(§1) The effects of pirfenidone, a drug used clinically as an anti-fibrotic drug, on the survival rate of mesenchymal stem cells and the secretion of HGF and PGE2 were confirmed in the same manner as rapamycin. The results of confirming the survival rate of mesenchymal stem cells according to pirfenidone treatment were shown in FIG. 3A, and the results of analyzing HGF and PGE2 secretion were shown in FIGS. 3B and 3C, respectively.

[2] = tested on: mesenchymal stem cells UCB #001, UCB #006, and UCB #192; assay: HGF secretion of mesenchymal stem cells by ELISA
Procedure: (§2) In addition, changes in HGF and PGE2 secretion in mesenchymal stem cells treated with rapamycin at various concentrations were analyzed by ELISA. The results of analyzing HGF and PGE2 secretion were shown in FIGS. 2B and 2C, respectively.
as §1

[3] = tested on: mesenchymal stem cells UCB #001, UCB #006, and UCB #192; assay: PGE2 secretion of mesenchymal stem cells by ELISA; conditions: pirfenidone treatment
Procedure: as §2, §1

Row | SMILES | concentration at which cytotoxicity was exhibited ([1]; mesenchymal stem cells, 24 hours, CCK-8) [ng/mL] | HGF secretion ([2]; pirfenidone 20 μg/ml) | HGF secretion ([2]; pirfenidone 4 to 10 μg/ml) | cell viability ([1]; UCB #001, pirfenidone 1 to 6 μg/ml, CCK-8) | concentration at which cytotoxicity was exhibited ([1]; UCB #006 and UCB #192, CCK-8) [ng/mL] | cell viability ([1]; UCB #006 and UCB #192, pirfenidone 1 to 10 μg/ml, CCK-8) | PGE2 secretion [3]
1 | CO[C@H]1C[C@@H]2CC[C@@H](C)[C@@](O)(O2)C(=O)C(=O)N2CCCC[C@H]2C(=O)O[C@H]([C@H](C)C[C@@H]2CC[C@@H](O)[C@H](OC)C2)CC(=O)[C@H](C)/C=C(\C)[C@@H](O)[C@@H](OC)C(=O)[C@H](C)C[C@H](C)/C=C/C=C/C=C/1C [rapamycin] | ≥ 80 | – | – | – | – | – | –
2 | Cc1ccc(=O)n(-c2ccccc2)c1 [pirfenidone] | – | reduced | did not affect | increased | ≥ 20000 | increased | no significant change
